The record followed here is patent publication US9012674B1, “Ethyl (2R)-2-acetamido-3-(4-methylbenzoylsulfanyl)propanoate and uses thereof” (Promentis Pharmaceuticals, Inc., priority 2013, dated 2015).

In data set [1] the test system is human glial cells from brain astrocytoma (1321N1). Kind of data set: 14C-cystine uptake in human astrocytoma cell culture. Conditions: 100 μM (most effective concentration); three hour incubation; versus untreated control; average of three experiments. It is filed as cell-based. Here is the method: The goal of these experiments was to determine ^14C-cystine uptake. The experiments were conducted as follows.
The screening of the compound was performed using an in vitro culture system of human glial cells from brain astrocytoma (1321N1). Cells were plated on 24 well plates coated with poly-D-lysine and laminin and grown in a balanced salt solution supplemented with 5% heat inactivated horse serum, 5% fetal bovine serum, 2 mM glutamine and glucose (total 21 mM). Cultures were maintained in humidified 5% CO2 incubators at 37° C. for 3-4 days before experiments were performed, at this time the cultures has formed a single confluent layer. For experiments, cultures were washed 3 times into a Na-free HEPES and HCO3^− buffered balanced salt solution. After 1 hour the test compounds are added. Following a three hour incubation, ^14C-cystine (0.025 mCi/mL) was then added for 20 minutes. Following the ^14C-cystine exposure, cultures were washed 3 times with ice cold HEPES buffered saline solution and dissolved in 250 μl sodium dodecyl sulfate (0.1%). An aliquot (200 μl) was removed and added to scintillation fluid for counting. Values were normalized to ^14C-cystine uptake in untreated controls on the same experimental plate. […]

Another data set can be described thus: Solubility data. Type of data set: physicochemical. The settings on record: according to solubility data; read-out: concentration above which compound is not in solution (solubility).
Data set [2] has as its system human glial cells from brain astrocytoma (1321N1). The data set is described as follows: 3H-glutamate release in human astrocytoma cell culture. Type of data set: cell-based. The settings on record: 300 μM (most effective concentration); at 3 hours; versus untreated control. The procedure: This assay also uses the cell culture system of human glial cells from brain astrocytoma (1321N1) described above. Initially, cells are washed with HBBSS, and ^3H-glutamate is added (PerkinElmer: 1 mCi/mL stock solution is diluted (30 μL+500 μL HBBSS) and 10 μL of diluted radiolabel is added to each well). Following a 1 hour incubation to load the cells with the labeled glutamate, the cells are washed again with HBBSS, and the drug is added. At 30, 90, and 180 minutes, 50 μL of extracellular media is sampled from each well and is measured using a Beckman LS 6500 scintillation counter.
Results of the ^14C-cystine uptake and ^3H-glutamate release by astrocytes treated with differing concentrations of Pro-4051, are presented in FIG. 1, as a percentage of the untreated control. […] This graph represents an average of three experiments run.

As to `CCOC(=O)[C@H](CSC(=O)c1ccc(C)cc1)NC(C)=O` [Pro-4051, ethyl (2R)-2-acetamido-3-(4-methylbenzoylsulfanyl)propanoate], the “decrease in 14C-cystine uptake” value in data set [1] is “approximately 28%”. For the same compound, the solubility in “Solubility data” is no more than 316 µM. In addition, the “increase in 3H-glutamate release” value in data set [2] is on record as “approximately 100%”.
